Laboratory results from patent publication US6355799B1, “Substituted benzene compounds, process for their preparation, and herbicidal and defoliant compositions containing them” (ISK Americas Incorporated, priority 1997, dated 2002).

What was measured:
Assay type in all cases: in vivo
[1] = tested on: ivyleaf morningglory (Ipomoea hederacea, IPOHE); test: Pre-emerge test, greenhouse herbicide activity screening; conditions: pre-emerge, 14 days after application, scale 0-100
In short: (§1)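 Fourteen days after spraying, crop and weed injury was graded visually from 0, no effect, to 100, every plant dead. Test substances were dissolved in acetone and applied at 15–1000 g ai/ha with a flat-fan nozzle. Application was either pre-emergence, one day after sowing, or post-emergence at the 2–3 leaf stage.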

[2] = tested on: lambsquarters (Chenopodium album, CHEAL); test: as above; conditions: pre-emerge, 14 days after application, scale 0-100
In short: as §1

[3] = tested on: johnsongrass (Sorghum halepense, SORHA); test: as above; conditions: pre-emerge, 14 days after application, scale 0-100
In short: as §1

[4] = tested on: barnyardgrass (Echinochloa crus-galli, ECHCG); test: as above; conditions: pre-emerge, 14 days after application, scale 0-100
In short: as §1

[5] = tested on: sicklepod (Cassia obtusifolia, CASOB); test: as above; conditions: pre-emerge, 14 days after application, scale 0-100
In short: as §1

[6] = tested on: green foxtail (Setaria viridis, SETVI); test: as above; conditions: pre-emerge, 14 days after application, scale 0-100
In short: as §1

[7] = tested on: velvetleaf (Abutilon theophrasti, ABUTH); test: as above; conditions: pre-emerge, 14 days after application, scale 0-100
In short: as §1

[8] = tested on: common ragweed (Ambrosia artemisizfolia L., AMBEL); test: as above; conditions: pre-emerge, 14 days after application, scale 0-100
In short: as §1

[9] = tested on: large crabgrass (Digitaria sanguinalis, DIGSA); test: as above; conditions: pre-emerge, 14 days after application, scale 0-100
In short: as §1

[10] = tested on: field corn (Zea mays L., var. Dekalb 535, CORN); test: Pre-emerge test, crop safety; conditions: pre-emerge, 14 days after application, scale 0-100
In short: (§2)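 Rating: 0–100 visual injury, 14 DAA. Application: acetone, 187 l/ha, 15–1000 g ai/ha, flat-fan track sprayer with nozzle 40–45 cm above soil or canopy. Post-emerge runs used 0.25% v/v surfactant on 2–3 leaf plants.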

[11] = tested on: upland rice (Oryza sp., var. Tebonnet, RICE); test: Pre-emerge test, crop safety; conditions: pre-emerge, 14 days after application, scale 0-100
In short: as §2

[12] = tested on: field corn (Zea mays L., var. Dekalb 535, CORN); test: Post-emerge test, crop safety; conditions: post-emerge, 14 days after application, rating scale 0-100
In short: as §1

[13] = tested on: upland rice (Oryza sp., var. Tebonnet, RICE); test: Post-emerge test, crop safety; conditions: post-emerge, 14 days after application, rating scale 0-100
In short: as §1

[14] = tested on: ivyleaf morningglory (Ipomoea hederacea, IPOHE); test: Post-emerge test, greenhouse herbicide activity screening; conditions: post-emerge, 14 days after application, rating scale 0-100
In short: (§3)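 Visual ratings on a 0-100 scale (0 no damage, 100 all plants dead) were taken at 14 days after treatment. Rates of 15-1000 g ai/ha in acetone, 187 l/ha, were sprayed onto soil one day after planting (pre-emerge) or onto 2-3 leaf plants with 0.25% v/v surfactant (post-emerge).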

[15] = tested on: lambsquarters (Chenopodium album, CHEAL); test: as above; conditions: post-emerge, 14 days after application, rating scale 0-100
In short: as §3

[16] = tested on: johnsongrass (Sorghum halepense, SORHA); test: as above; conditions: post-emerge, 14 days after application, rating scale 0-100
In short: as §3

[17] = tested on: barnyardgrass (Echinochloa crus-galli, ECHCG); test: as above; conditions: post-emerge, 14 days after application, rating scale 0-100
In short: as §3

[18] = tested on: sicklepod (Cassia obtusifolia, CASOB); test: as above; conditions: post-emerge, 14 days after application, rating scale 0-100
In short: as §3

[19] = tested on: green foxtail (Setaria viridis, SETVI); test: as above; conditions: post-emerge, 14 days after application, rating scale 0-100
In short: as §3

[20] = tested on: velvetleaf (Abutilon theophrasti, ABUTH); test: as above; conditions: post-emerge, 14 days after application, rating scale 0-100
In short: as §3

[21] = tested on: redroot pigweed (Amaranthus retroflexus, AMARE); test: as above; conditions: post-emerge, 14 days after application, rating scale 0-100
In short: as §3

[22] = tested on: large crabgrass (Digitaria sanguinalis, DIGSA); test: as above; conditions: post-emerge, 14 days after application, rating scale 0-100
In short: as §3

[23] = tested on: redroot pigweed (Amaranthus retroflexus, AMARE); test: Pre-emerge test, greenhouse herbicide activity screening; conditions: pre-emerge, 14 days after application, scale 0-100
In short: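 Compounds in acetone were track-sprayed at 15-1000 g ai/ha (187 l/ha) on sandy loam pots: pre-emerge one day after seeding, post-emerge at 2-3 leaf stage with 0.25% v/v non-ionic surfactant. Phytotoxicity was rated 14 days later on a 0 (no damage) to 100 (complete death) scale.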

Cn1c(C(F)(F)F)cc(=O)n(-c2c(F)cc(OC(F)F)cc2NC(=O)c2ccc3ccccc3c2)c1=O [2-148]
40: SETVI phytotoxicity rating ([19]; 250 g ai/ha) | DIGSA phytotoxicity rating ([22]; 63 g ai/ha) | DIGSA phytotoxicity rating ([22]; 250 g ai/ha)
99: phytotoxicity rating IPOHE ([1]; 250 g ai/ha)
0: phytotoxicity rating SORHA ([3]; 63 g ai/ha) | phytotoxicity rating AMBEL ([8]; 63 g ai/ha) | phytotoxicity rating CORN (crop damage) ([10]; 63 g ai/ha) | phytotoxicity rating CORN (crop damage) ([10]; 250 g ai/ha) | phytotoxicity rating RICE (crop damage) ([11]; 63 g ai/ha) | RICE phytotoxicity rating (crop damage) ([13]; 63 g ai/ha) | SORHA phytotoxicity rating ([16]; 63 g ai/ha)
50: phytotoxicity rating IPOHE ([1]; 63 g ai/ha) | phytotoxicity rating CASOB ([5]; 63 g ai/ha) | ECHCG phytotoxicity rating ([17]; 63 g ai/ha) | SETVI phytotoxicity rating ([19]; 63 g ai/ha)
25: CORN phytotoxicity rating (crop damage) ([12]; 63 g ai/ha)
100: phytotoxicity rating CHEAL ([2]; 63 g ai/ha) | phytotoxicity rating CHEAL ([2]; 250 g ai/ha) | phytotoxicity rating ECHCG ([4]; 250 g ai/ha) | phytotoxicity rating ABUTH ([7]; 63 g ai/ha) | phytotoxicity rating ABUTH ([7]; 250 g ai/ha) | phytotoxicity rating AMBEL ([8]; 250 g ai/ha) | phytotoxicity rating DIGSA ([9]; 250 g ai/ha) | CHEAL phytotoxicity rating ([15]; 63 g ai/ha) | CHEAL phytotoxicity rating ([15]; 250 g ai/ha) | CASOB phytotoxicity rating ([18]; 250 g ai/ha) | ABUTH phytotoxicity rating ([20]; 63 g ai/ha) | ABUTH phytotoxicity rating ([20]; 250 g ai/ha) | AMARE phytotoxicity rating ([21]; 63 g ai/ha) | phytotoxicity rating AMARE ([23]; 63 g ai/ha) | phytotoxicity rating AMARE ([23]; 250 g ai/ha)
20: ECHCG phytotoxicity rating ([17]; 250 g ai/ha)
60: phytotoxicity rating RICE (crop damage) ([11]; 250 g ai/ha)
90: phytotoxicity rating ECHCG ([4]; 63 g ai/ha) | IPOHE phytotoxicity rating ([14]; 250 g ai/ha) | AMARE phytotoxicity rating ([21]; 250 g ai/ha)
95: phytotoxicity rating CASOB ([5]; 250 g ai/ha) | phytotoxicity rating SETVI ([6]; 250 g ai/ha) | phytotoxicity rating DIGSA ([9]; 63 g ai/ha) | CASOB phytotoxicity rating ([18]; 63 g ai/ha)
10: RICE phytotoxicity rating (crop damage) ([13]; 250 g ai/ha) | SORHA phytotoxicity rating ([16]; 250 g ai/ha)
80: phytotoxicity rating SETVI ([6]; 63 g ai/ha) | IPOHE phytotoxicity rating ([14]; 63 g ai/ha)
30: phytotoxicity rating SORHA ([3]; 250 g ai/ha) | CORN phytotoxicity rating (crop damage) ([12]; 250 g ai/ha)
